Tests used:
Experiment in all cases: relative viability (nuclei count vs DMSO), 5 days (fraction); higher = more cells survive
LU99A = tested on: LU99A
Procedure, shortened: (§1)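 Lung cancer cell lines were seeded in 1536-well plates and dosed by pin tool the next day, with either a single drug or a fixed anchor-drug dose combined with five library-drug doses (not always all listed) spaced in √10 steps. Five days later, one step fixed the cells and stained their nuclei (final 0.05% Triton X-100, 1% formaldehyde, 1 ug/ml Hoechst), and nuclei were counted on 4× images. Relative viability is the nuclei count in treated wells divided by the count in vehicle wells, and each value is the median of duplicate plates.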

NCI-H1563 = tested on: NCI-H1563
Procedure, shortened: as §1

NCI-H1395 = tested on: NCI-H1395
Procedure, shortened: as §1

HCC-15 = tested on: HCC-15
Procedure, shortened: as §1

NCI-H358 = tested on: NCI-H358
Procedure, shortened: as §1

LC-2-ad = tested on: LC-2-ad
Procedure, shortened: as §1

NCI-H1915 = tested on: NCI-H1915
Procedure, shortened: as §1

NCI-H1755 = tested on: NCI-H1755
Procedure, shortened: as §1

HOP-62 = tested on: HOP-62
Procedure, shortened: as §1

SW 1573 = tested on: SW 1573
Procedure, shortened: as §1

HCC-44 = tested on: HCC-44
Procedure, shortened: as §1

NCI-H3122 = tested on: NCI-H3122
Procedure, shortened: as §1

NCI-H1734 = tested on: NCI-H1734
Procedure, shortened: as §1

NCI-H2126 = tested on: NCI-H2126
Procedure, shortened: as §1

NCI-H1437 = tested on: NCI-H1437
Procedure, shortened: as §1

EMC-BAC-2 = tested on: EMC-BAC-2
Procedure, shortened: as §1

NCI-H650 = tested on: NCI-H650
Procedure, shortened: as §1

NCI-H727 = tested on: NCI-H727
Procedure, shortened: as §1

NCI-H2023 = tested on: NCI-H2023
Procedure, shortened: as §1

NCI-H2170 = tested on: NCI-H2170
Procedure, shortened: as §1

Cc1cn(-c2cc(NC(=O)c3ccc(C)c(Nc4nccc(-c5cccnc5)n4)c3)cc(C(F)(F)F)c2)cn1 [Nilotinib] + Cc1nc(NC(=O)N2CCC[C@H]2C(N)=O)sc1-c1ccnc(C(C)(C)C(F)(F)F)c1 [Alpelisib] (partner 2 µM)
relative viability (LU99A; first compound 0.001 µM): 0.495 | relative viability (LU99A; first compound 0.003162 µM): 0.531 | relative viability (LU99A; first compound 0.01 µM): 0.518 | relative viability (LU99A; first compound 0.03162 µM): 0.48 | relative viability (LU99A; first compound 0.1 µM): 0.377 | relative viability (NCI-H1563; first compound 0.001 µM): 0.738 | relative viability (NCI-H1563; first compound 0.003162 µM): 0.905 | relative viability (NCI-H1563; first compound 0.01 µM): 0.839 | relative viability (NCI-H1563; first compound 0.03162 µM): 0.849 | relative viability (NCI-H1563; first compound 0.1 µM): 0.79 | relative viability (NCI-H1395; first compound 0.001 µM): 0.877 | relative viability (NCI-H1395; first compound 0.003162 µM): 0.929 | relative viability (NCI-H1395; first compound 0.03162 µM): 0.977 | relative viability (NCI-H1395; first compound 0.1 µM): 0.99 | relative viability (HCC-15; first compound 0.001 µM): 0.824 | relative viability (HCC-15; first compound 0.003162 µM): 1.11 | relative viability (HCC-15; first compound 0.01 µM): 1.05 | relative viability (HCC-15; first compound 0.03162 µM): 0.727 | relative viability (HCC-15; first compound 0.1 µM): 0.616 | relative viability (NCI-H358; first compound 0.001 µM): 0.958 | relative viability (NCI-H358; first compound 0.003162 µM): 1.18 | relative viability (NCI-H358; first compound 0.01 µM): 0.999 | relative viability (NCI-H358; first compound 0.03162 µM): 0.686 | relative viability (NCI-H358; first compound 0.1 µM): 0.666 | relative viability (LC-2-ad; first compound 0.001 µM): 0.876 | relative viability (LC-2-ad; first compound 0.003162 µM): 1 | relative viability (LC-2-ad; first compound 0.01 µM): 1.03 | relative viability (LC-2-ad; first compound 0.03162 µM): 0.918 | relative viability (LC-2-ad; first compound 0.1 µM): 0.833 | relative viability (NCI-H1915; first compound 0.001 µM): 0.981 | relative viability (NCI-H1915; first compound 0.003162 µM): 1.1 | relative viability (NCI-H1915; first compound 0.01 µM): 1.14 | relative viability (NCI-H1915; first compound 0.03162 µM): 1.01 | relative viability (NCI-H1915; first compound 0.1 µM): 0.981 | relative viability (NCI-H1755; first compound 0.001 µM): 0.862 | relative viability (NCI-H1755; first compound 0.003162 µM): 1.13 | relative viability (NCI-H1755; first compound 0.01 µM): 0.982 | relative viability (NCI-H1755; first compound 0.03162 µM): 0.707 | relative viability (NCI-H1755; first compound 0.1 µM): 0.785 | relative viability (HOP-62; first compound 0.001 µM): 0.889 | relative viability (HOP-62; first compound 0.003162 µM): 0.843 | relative viability (HOP-62; first compound 0.01 µM): 1.13 | relative viability (HOP-62; first compound 0.03162 µM): 0.742 | relative viability (HOP-62; first compound 0.1 µM): 0.7 | relative viability (SW 1573; first compound 0.001 µM): 0.867 | relative viability (SW 1573; first compound 0.003162 µM): 0.764 | relative viability (SW 1573; first compound 0.01 µM): 0.92 | relative viability (SW 1573; first compound 0.03162 µM): 0.594 | relative viability (SW 1573; first compound 0.1 µM): 0.682 | relative viability (HCC-44; first compound 0.001 µM): 0.708 | relative viability (HCC-44; first compound 0.003162 µM): 0.939 | relative viability (HCC-44; first compound 0.01 µM): 0.898 | relative viability (HCC-44; first compound 0.03162 µM): 0.59 | relative viability (HCC-44; first compound 0.1 µM): 0.74 | relative viability (NCI-H3122; first compound 0.001 µM): 0.941 | relative viability (NCI-H3122; first compound 0.003162 µM): 0.925 | relative viability (NCI-H3122; first compound 0.01 µM): 0.87 | relative viability (NCI-H3122; first compound 0.03162 µM): 0.683 | relative viability (NCI-H3122; first compound 0.1 µM): 0.587 | relative viability (NCI-H1734; first compound 0.001 µM): 0.692 | relative viability (NCI-H1734; first compound 0.003162 µM): 0.638 | relative viability (NCI-H1734; first compound 0.01 µM): 0.682 | relative viability (NCI-H1734; first compound 0.03162 µM): 0.551 | relative viability (NCI-H1734; first compound 0.1 µM): 0.507 | relative viability (NCI-H2126; first compound 0.001 µM): 0.732 | relative viability (NCI-H2126; first compound 0.003162 µM): 0.809 | relative viability (NCI-H2126; first compound 0.01 µM): 0.85 | relative viability (NCI-H2126; first compound 0.03162 µM): 0.829 | relative viability (NCI-H2126; first compound 0.1 µM): 0.575 | relative viability (NCI-H1437; first compound 0.001 µM): 0.829 | relative viability (NCI-H1437; first compound 0.003162 µM): 1.17 | relative viability (NCI-H1437; first compound 0.01 µM): 1.39 | relative viability (NCI-H1437; first compound 0.03162 µM): 0.75 | relative viability (NCI-H1437; first compound 0.1 µM): 0.971 | relative viability (EMC-BAC-2; first compound 0.001 µM): 0.728 | relative viability (EMC-BAC-2; first compound 0.003162 µM): 0.893 | relative viability (EMC-BAC-2; first compound 0.01 µM): 0.883 | relative viability (EMC-BAC-2; first compound 0.03162 µM): 0.668 | relative viability (EMC-BAC-2; first compound 0.1 µM): 0.787 | relative viability (NCI-H650; first compound 0.001 µM): 1 | relative viability (NCI-H650; first compound 0.003162 µM): 1.09 | relative viability (NCI-H650; first compound 0.01 µM): 1.4 | relative viability (NCI-H650; first compound 0.03162 µM): 0.989 | relative viability (NCI-H650; first compound 0.1 µM): 1.23 | relative viability (NCI-H727; first compound 0.001 µM): 0.573 | relative viability (NCI-H727; first compound 0.01 µM): 0.719 | relative viability (NCI-H727; first compound 0.03162 µM): 0.456 | relative viability (NCI-H727; first compound 0.1 µM): 0.395 | relative viability (NCI-H2023; first compound 0.001 µM): 0.513 | relative viability (NCI-H2023; first compound 0.003162 µM): 0.655 | relative viability (NCI-H2023; first compound 0.01 µM): 0.654 | relative viability (NCI-H2023; first compound 0.03162 µM): 0.558 | relative viability (NCI-H2023; first compound 0.1 µM): 0.478 | relative viability (NCI-H2170; first compound 0.001 µM): 0.865 | relative viability (NCI-H2170; first compound 0.003162 µM): 0.916 | relative viability (NCI-H2170; first compound 0.01 µM): 1.15 | relative viability (NCI-H2170; first compound 0.03162 µM): 0.767 | relative viability (NCI-H2170; first compound 0.1 µM): 1.07
